Assay results as given in paper PMC3379896 (ACS medicinal chemistry letters, 2012).

How the values were obtained:
MMP-7 = molecular target: T1, MMP-7 (Homo sapiens, UniProt P09237); test: Kinetic inhibition of MMP-7; format: biochemical; conditions: read-out: MMP-7 inhibition at fixed concentration
T1 sequence (P09237 95-267): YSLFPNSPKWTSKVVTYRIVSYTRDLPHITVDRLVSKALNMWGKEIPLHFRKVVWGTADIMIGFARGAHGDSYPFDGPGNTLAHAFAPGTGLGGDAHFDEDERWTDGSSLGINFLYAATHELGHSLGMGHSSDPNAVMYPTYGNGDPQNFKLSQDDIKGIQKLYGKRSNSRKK

MMP-14 = MMP-14 (Homo sapiens, UniProt P50281); test: Kinetic inhibition of MMP-14; conditions: slow-binding
MMP-1 = molecular target: T2, MMP-1 (Homo sapiens, UniProt P03956); test: Kinetic inhibition of MMP-1; format: biochemical; conditions: read-out: MMP-1 inhibition at fixed concentration
T2 sequence (P03956 100-469): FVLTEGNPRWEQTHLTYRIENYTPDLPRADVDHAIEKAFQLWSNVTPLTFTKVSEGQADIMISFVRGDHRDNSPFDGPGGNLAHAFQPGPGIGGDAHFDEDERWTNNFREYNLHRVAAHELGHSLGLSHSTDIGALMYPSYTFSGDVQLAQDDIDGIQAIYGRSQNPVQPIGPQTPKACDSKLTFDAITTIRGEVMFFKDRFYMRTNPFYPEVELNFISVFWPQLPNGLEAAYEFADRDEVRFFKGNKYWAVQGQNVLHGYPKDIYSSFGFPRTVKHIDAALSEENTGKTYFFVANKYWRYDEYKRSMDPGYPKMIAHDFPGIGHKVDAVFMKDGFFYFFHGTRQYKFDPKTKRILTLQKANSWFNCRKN

Row | Structure (SMILES) | MMP-14 inhibition, in words (MMP-14) | also measured
1 | O=S(=O)(CC1CS1)c1ccc(Oc2ccc(OC(F)(F)F)cc2)cc1 (stereo not drawn) [Compound 38a] | include MMP-14 in their spectrum of inhibition | inhibition at 20 µM (MMP-7): 0 to 3%
2 | O=S(=O)(CC1CS1)c1ccc(Oc2ccc(CO)cc2)cc1 (stereo not drawn) [Compound 26] | include MMP-14 in their spectrum of inhibition | 
3 | O=S(=O)(CC1CS1)c1ccc(Oc2ccc(F)cc2)cc1 (stereo not drawn) [Compound 19a] | include MMP-14 in their spectrum of inhibition | inhibition at 20 µM (MMP-1): 0 to 3%
4 | CC(C)Oc1ccc(Oc2ccc(S(=O)(=O)CC3CS3)cc2)cc1 (stereo not drawn) [Compound 32] | include MMP-14 in their spectrum of inhibition | 
5 | COCOc1ccc(Oc2ccc(S(=O)(=O)CC3CS3)cc2)cc1 (stereo not drawn) [Compound 33a] | include MMP-14 in their spectrum of inhibition | 
6 | O=S(=O)(CC1CS1)c1ccc(Oc2cccc(F)c2)cc1 (stereo not drawn) [Compound 19b] | include MMP-14 in their spectrum of inhibition | inhibition at 125 µM (MMP-7): 0 to 3%
7 | O=S(=O)(CC1CS1)c1ccc(Oc2ccc(I)cc2)cc1 (stereo not drawn) [Compound 22a] | include MMP-14 in their spectrum of inhibition | inhibition at 60 µM (MMP-1): 0 to 3%; inhibition at 10 µM (MMP-7): 0 to 3%
